The results in this text go back to paper PMC5218480 (PLoS ONE, 2017).

This assay has as its system MV-4-11 cells. The assay is described as follows: Gene expression microarray analysis (Affymetrix PrimeView) and GSEA. The format is cell-based, human. Also on record: RFU PODN (11730768_x_at) / Fold change /veh PODN (11730768_x_at) / RFU LINC00158 (11744669_a_at) / Fold change /veh LINC00158 (11744669_a_at) / RFU DUSP10 (11751237_a_at) / Fold change /veh DUSP10 (11751237_a_at) / RFU ID3 (11757404_x_at) / Fold change /veh ID3 (11757404_x_at) / RFU PLEKHG5 (11737974_s_at) / Fold change /veh PLEKHG5 (11737974_s_at) / RFU LRRC4B (11730491_at) / Fold change /veh LRRC4B (11730491_at) / RFU GIMAP4 (11747438_a_at) / Fold change /veh GIMAP4 (11747438_a_at) / RFU KRT8 (11758183_x_at) / Fold change /veh KRT8 (11758183_x_at) / RFU CNN1 (11734310_a_at) / Fold change /veh CNN1 (11734310_a_at) / RFU VPS37D (11726825_at) / Fold change /veh VPS37D (11726825_at) / RFU C10orf10 (11716522_x_at) / Fold change /veh C10orf10 (11716522_x_at) / RFU KIR2DL2 /// KIR2DL4 /// KIR2DL5A /// KIR2DL5B /// KIR2DS1 /// KIR2DS2 /// KIR2DS3 /// KIR2DS4 /// KIR3DL3 /// KIR3DL3 /// KIR3DS1 (11738374_at) / Fold change /veh KIR2DL2 /// KIR2DL4 /// KIR2DL5A /// KIR2DL5B /// KIR2DS1 /// KIR2DS2 /// KIR2DS3 /// KIR2DS4 /// KIR3DL3 /// KIR3DL3 /// KIR3DS1 (11738374_at) / RFU C1QL1 (11718748_at) / Fold change /veh C1QL1 (11718748_at) / RFU TMPRSS4 (11747572_a_at) / Fold change /veh TMPRSS4 (11747572_a_at) / RFU HAMP (11756126_x_at) / Fold change /veh HAMP (11756126_x_at) / RFU RNFT2 (11725882_a_at) / Fold change /veh RNFT2 (11725882_a_at) / RFU NR4A2 (11747474_a_at) / Fold change /veh NR4A2 (11747474_a_at) / RFU ABCC12 (11746883_a_at) / Fold change /veh ABCC12 (11746883_a_at) / RFU TMEM136 (11760407_x_at) / Fold change /veh TMEM136 (11760407_x_at) / RFU CLDN22 /// WWC2 (11732394_at) / Fold change /veh CLDN22 /// WWC2 (11732394_at) / RFU HLA-DPB1 (11760878_x_at) / Fold change /veh HLA-DPB1 (11760878_x_at) / RFU SPINT1 (11716480_a_at) / Fold change /veh SPINT1 (11716480_a_at) / RFU GAP43 (11754022_s_at) / Fold change /veh GAP43 (11754022_s_at) / RFU A4GNT (11735810_at) / Fold change /veh A4GNT (11735810_at) / RFU PRB3 (11715151_x_at) / Fold change /veh PRB3 (11715151_x_at) / RFU TUBB4B (11761932_at) / Fold change /veh TUBB4B (11761932_at) / RFU CAPN14 (11732068_a_at) / Fold change /veh CAPN14 (11732068_a_at) / RFU TMCC2 (11721928_a_at) / Fold change /veh TMCC2 (11721928_a_at) / RFU IRGQ (11745062_a_at) / Fold change /veh IRGQ (11745062_a_at) / RFU FAM174B (11720279_a_at) / Fold change /veh FAM174B (11720279_a_at) / RFU TMPRSS4 (11748680_a_at) / Fold change /veh TMPRSS4 (11748680_a_at) / RFU FAM212B (11763350_a_at) / Fold change /veh FAM212B (11763350_a_at) / RFU PLEKHG5 (11743358_a_at) / Fold change /veh PLEKHG5 (11743358_a_at) / RFU ZSCAN30 (11745921_a_at) / Fold change /veh ZSCAN30 (11745921_a_at) / RFU CMKLR1 (11741424_a_at) / Fold change /veh CMKLR1 (11741424_a_at) / RFU LOC101060620 /// MAPK8IP1 (11723275_at) / Fold change /veh LOC101060620 /// MAPK8IP1 (11723275_at) / RFU SPTSSB (11747773_x_at) / Fold change /veh SPTSSB (11747773_x_at) / RFU PRSS12 (11739890_at) / Fold change /veh PRSS12 (11739890_at) / RFU BIN1 (11741810_x_at) / Fold change /veh BIN1 (11741810_x_at) / RFU WNT11 (11732464_a_at) / Fold change /veh WNT11 (11732464_a_at) / RFU C10orf10 (11716521_a_at) / Fold change /veh C10orf10 (11716521_a_at) / RFU C5orf56 (11738089_at) / Fold change /veh C5orf56 (11738089_at) / RFU CYB561 (11721691_x_at) / Fold change /veh CYB561 (11721691_x_at) / RFU ANKRD19P (11752326_a_at) / Fold change /veh ANKRD19P (11752326_a_at) / RFU OR2T12 /// OR2T33 /// OR2T8 (11738714_s_at) / Fold change /veh OR2T12 /// OR2T33 /// OR2T8 (11738714_s_at) / RFU VCAN (11748164_a_at) / Fold change /veh VCAN (11748164_a_at) / RFU JSRP1 (11732532_at) / Fold change /veh JSRP1 (11732532_at) / RFU KRTAP10-11 (11738290_x_at) / Fold change /veh KRTAP10-11 (11738290_x_at) / RFU MYO3A (11730013_a_at) / Fold change /veh MYO3A (11730013_a_at) / RFU EBF3 (11725865_a_at) / Fold change /veh EBF3 (11725865_a_at) / RFU CAMK2N1 (11719241_x_at) / Fold change /veh CAMK2N1 (11719241_x_at) / RFU C5orf56 (11738088_a_at) / Fold change /veh C5orf56 (11738088_a_at) / RFU OLFML3 (11715873_a_at) / Fold change /veh OLFML3 (11715873_a_at) / RFU LOC100653217 /// NTM (11731650_a_at) / Fold change /veh LOC100653217 /// NTM (11731650_a_at) / RFU MAPK11 (11762145_a_at) / Fold change /veh MAPK11 (11762145_a_at) / RFU FIZ1 (11724087_x_at) / Fold change /veh FIZ1 (11724087_x_at) / RFU OASL (11726364_x_at) / Fold change /veh OASL (11726364_x_at) / RFU SOX15 (11748057_x_at) / Fold change /veh SOX15 (11748057_x_at) / RFU CD79A (11719716_a_at) / Fold change /veh CD79A (11719716_a_at) / RFU HIST1H1D (11736915_at) / Fold change /veh HIST1H1D (11736915_at) / RFU CASKIN2 (11723855_a_at) / Fold change /veh CASKIN2 (11723855_a_at) / RFU LOC730098 (11760151_x_at) / Fold change /veh LOC730098 (11760151_x_at) / RFU OR4N2 (11742367_at) / Fold change /veh OR4N2 (11742367_at) / RFU PRRT2 (11749266_a_at) / Fold change /veh PRRT2 (11749266_a_at) / RFU SNX32 (11753110_a_at) / Fold change /veh SNX32 (11753110_a_at) / RFU CDHR5 (11726645_a_at) / Fold change /veh CDHR5 (11726645_a_at) / RFU RCAN1 (11760418_a_at) / Fold change /veh RCAN1 (11760418_a_at) / RFU FAM167A (11723789_a_at) / Fold change /veh FAM167A (11723789_a_at) / RFU FAM26E (11764081_at) / Fold change /veh FAM26E (11764081_at) / RFU ISYNA1 (11749810_s_at) / Fold change /veh ISYNA1 (11749810_s_at) / RFU ACY1 (11761880_at) / Fold change /veh ACY1 (11761880_at) / RFU 11764098_at / Fold change /veh 11764098_at / RFU SAMD14 (11745864_x_at) / Fold change /veh SAMD14 (11745864_x_at) / RFU NPB (11741838_a_at) / Fold change /veh NPB (11741838_a_at) / RFU TMPRSS6 (11731388_a_at) / Fold change /veh TMPRSS6 (11731388_a_at) / RFU KRTAP10-2 (11738614_at) / Fold change /veh KRTAP10-2 (11738614_at) / RFU ARHGAP8 /// PRR5-ARHGAP8 (11727945_x_at) / Fold change /veh ARHGAP8 /// PRR5-ARHGAP8 (11727945_x_at) / RFU KRTAP5-7 /// NADSYN1 (11734609_at) / Fold change /veh KRTAP5-7 /// NADSYN1 (11734609_at) / RFU RASL12 (11751679_a_at) / Fold change /veh RASL12 (11751679_a_at) / RFU CDKN2B (11736163_a_at) / Fold change /veh CDKN2B (11736163_a_at) / RFU PRF1 (11729649_at) / Fold change /veh PRF1 (11729649_at) / RFU, ZNF638 /// ZNF638-IT1 / Fold change vs veh, ZNF638 /// ZNF638-IT1 / RFU, PANK3 / Fold change vs veh, PANK3 / RFU, SH3YL1 / Fold change vs veh, SH3YL1 / RFU, ZEB2 / Fold change vs veh, ZEB2 / RFU, NRIP1 / Fold change vs veh, NRIP1 / RFU, PTTG1IP / Fold change vs veh, PTTG1IP / RFU, CAPN2 / Fold change vs veh, CAPN2 / RFU, MED14 / Fold change vs veh, MED14 / RFU, SNORA58 / Fold change vs veh, SNORA58 / RFU, C1orf63 / Fold change vs veh, C1orf63 / RFU, LRRFIP1 / Fold change vs veh, LRRFIP1 / RFU, NDUFAF7 / Fold change vs veh, NDUFAF7 / RFU, SLC12A2 / Fold change vs veh, SLC12A2 / RFU, IBTK / Fold change vs veh, IBTK / RFU, ESF1 / Fold change vs veh, ESF1 / Fold change vs veh, TMEM50B / RFU, TAOK1 / Fold change vs veh, TAOK1 / RFU, ACBD3 / Fold change vs veh, ACBD3 / RFU, TMA16 / Fold change vs veh, TMA16 / RFU, RWDD3 / Fold change vs veh, RWDD3 / RFU, BCAT1 / Fold change vs veh, BCAT1 / RFU, EDEM3 / Fold change vs veh, EDEM3 / RFU, TMEM33 / Fold change vs veh, TMEM33 / RFU, WDR75 / Fold change vs veh, WDR75 / RFU, AHCTF1 / Fold change vs veh, AHCTF1 / RFU, TFRC / Fold change vs veh, TFRC / RFU, ZDHHC17 / Fold change vs veh, ZDHHC17 / RFU, NOM1 / Fold change vs veh, NOM1 / RFU, ARL8B / Fold change vs veh, ARL8B / RFU, ZBTB11 / Fold change vs veh, ZBTB11 / RFU, TAMM41 / Fold change vs veh, TAMM41 / RFU, KIAA1704 /// LOC100996395 / Fold change vs veh, KIAA1704 /// LOC100996395 / RFU, ING1 / Fold change vs veh, ING1 / RFU, TRMT61B / Fold change vs veh, TRMT61B / RFU, FUBP3 / Fold change vs veh, FUBP3 / RFU, TP53 / Fold change vs veh, TP53 / RFU, TNKS2 / Fold change vs veh, TNKS2 / RFU, ZFP14 / Fold change vs veh, ZFP14 / RFU, ACTR2 / Fold change vs veh, ACTR2 / RFU, PPP3R1 / Fold change vs veh, PPP3R1 / RFU, PIK3R1 / Fold change vs veh, PIK3R1 / RFU, HNRNPA1 / Fold change vs veh, HNRNPA1 / RFU, RNF170 / Fold change vs veh, RNF170 / RFU, ZNF28 / Fold change vs veh, ZNF28 / RFU, RNGTT / Fold change vs veh, RNGTT / RFU, OGT / Fold change vs veh, OGT / RFU, BRD1 / Fold change vs veh, BRD1 / RFU, MARS / Fold change vs veh, MARS / RFU, ZNF655 / Fold change vs veh, ZNF655 / RFU, FAHD1 / Fold change vs veh, FAHD1 / RFU, BDP1 / Fold change vs veh, BDP1 / RFU, LRRCC1 / Fold change vs veh, LRRCC1 / RFU, ARID1A / Fold change vs veh, ARID1A / RFU, ZNF146 / Fold change vs veh, ZNF146 / RFU, ZNF330 / Fold change vs veh, ZNF330 / RFU, GPN3 / Fold change vs veh, GPN3 / RFU, C9orf123 / Fold change vs veh, C9orf123 / RFU, N4BP2L2 / Fold change vs veh, N4BP2L2 / RFU, ARFIP1 / Fold change vs veh, ARFIP1 / RFU, FAM179B / Fold change vs veh, FAM179B / RFU, BCL10 / Fold change vs veh, BCL10 / RFU, UHRF1BP1L / Fold change vs veh, UHRF1BP1L / RFU, BET1 / Fold change vs veh, BET1 / RFU, CNOT2 / Fold change vs veh, CNOT2 / RFU, ZNF268 / Fold change vs veh, ZNF268 / Fold change vs veh, ZNF507 / RFU, DGCR2 / Fold change vs veh, DGCR2 / RFU, WDSUB1 / Fold change vs veh, WDSUB1 / Fold change vs veh, HSP90B1 /// MIR3652 / RFU, ADSS / Fold change vs veh, ADSS / RFU, GK / Fold change vs veh, GK / RFU, ZNF148 / Fold change vs veh, ZNF148 / RFU, TAF9 / Fold change vs veh, TAF9 / RFU, SLC1A5 / Fold change vs veh, SLC1A5 / RFU, SLMO2 / Fold change vs veh, SLMO2 / RFU, ABCC4 / Fold change vs veh, ABCC4 / RFU, LOC101060439 /// RAP1B / Fold change vs veh, LOC101060439 /// RAP1B / RFU, RFX7 / Fold change vs veh, RFX7 / RFU, GTPBP10 / Fold change vs veh, GTPBP10 / RFU, CNEP1R1 / Fold change vs veh, CNEP1R1 / RFU, BIVM-ERCC5 /// ERCC5 / Fold change vs veh, BIVM-ERCC5 /// ERCC5 / RFU, ILF3 / Fold change vs veh, ILF3 / RFU 11762660_at / Fold change /veh 11762660_at / RFU VCAN (11757783_s_at) / Fold change /veh VCAN (11757783_s_at) / RFU DDX43 (11728927_at) / Fold change /veh DDX43 (11728927_at) / RFU KRT8 (11758188_x_at) / Fold change /veh KRT8 (11758188_x_at) / RFU NKD1 (11759106_at) / Fold change /veh NKD1 (11759106_at) / RFU SRD5A1 (11742802_a_at) / Fold change /veh SRD5A1 (11742802_a_at) / RFU TPSAB1 /// TPSB2 (11721975_s_at) / Fold change /veh TPSAB1 /// TPSB2 (11721975_s_at) / RFU GSTM3 (11746129_a_at) / Fold change /veh GSTM3 (11746129_a_at) / RFU IL23R (11737362_x_at) / Fold change /veh IL23R (11737362_x_at) / RFU TMEM51 (11727254_a_at) / Fold change /veh TMEM51 (11727254_a_at) / RFU PIWIL2 (11732686_x_at) / Fold change /veh PIWIL2 (11732686_x_at) / RFU ORM1 (11744905_x_at) / Fold change /veh ORM1 (11744905_x_at) / RFU CCDC152 (11743942_at) / Fold change /veh CCDC152 (11743942_at) / RFU ECM1 (11717891_a_at) / Fold change /veh ECM1 (11717891_a_at) / RFU IL23R (11748794_a_at) / Fold change /veh IL23R (11748794_a_at) / RFU TNFAIP8L3 (11732012_x_at) / Fold change /veh TNFAIP8L3 (11732012_x_at) / RFU MBOAT4 (11741988_at) / Fold change /veh MBOAT4 (11741988_at) / RFU 11764193_at / Fold change /veh 11764193_at / RFU TMEM53 (11763286_at) / Fold change /veh TMEM53 (11763286_at) / RFU MAGEB2 (11727129_at) / Fold change /veh MAGEB2 (11727129_at) / RFU TMEM200A (11744735_a_at) / Fold change /veh TMEM200A (11744735_a_at) / RFU CCDC152 (11751479_a_at) / Fold change /veh CCDC152 (11751479_a_at) / RFU FAM211A (11726209_a_at) / Fold change /veh FAM211A (11726209_a_at) / RFU RGS16 (11746705_a_at) / Fold change /veh RGS16 (11746705_a_at) / RFU VCAN (11755009_s_at) / Fold change /veh VCAN (11755009_s_at) / RFU RHOB (11743442_s_at) / Fold change /veh RHOB (11743442_s_at) / RFU RGS16 (11720943_a_at) / Fold change /veh RGS16 (11720943_a_at) / RFU RGS16 (11720944_at) / Fold change /veh RGS16 (11720944_at) / RFU, VPS4B / Fold change vs veh, VPS4B / RFU, CREB1 / Fold change vs veh, CREB1 / RFU, DNAJC13 / Fold change vs veh, DNAJC13 / RFU, GNAQ / Fold change vs veh, GNAQ / RFU, CDK5R1 / Fold change vs veh, CDK5R1 / RFU, ZRANB3 / Fold change vs veh, ZRANB3 / RFU, CUL4A / Fold change vs veh, CUL4A / RFU, CCNY / Fold change vs veh, CCNY / RFU, UFL1 / Fold change vs veh, UFL1 / RFU, COG3 / Fold change vs veh, COG3 / RFU, DIAPH2 / Fold change vs veh, DIAPH2 / RFU, SKA2 / Fold change vs veh, SKA2 / RFU, AFF3 / Fold change vs veh, AFF3 / RFU, LMF1 / Fold change vs veh, LMF1 / RFU, IPO11 / Fold change vs veh, IPO11 / RFU, DFFB / Fold change vs veh, DFFB / RFU, FOXP1 / Fold change vs veh, FOXP1 / RFU, CARD8 / Fold change vs veh, CARD8 / RFU, STRN3 / Fold change vs veh, STRN3 / RFU, ADK / Fold change vs veh, ADK / RFU, RASSF2 / Fold change vs veh, RASSF2 / RFU, WIPF1 / Fold change vs veh, WIPF1 / RFU, LARP1B / Fold change vs veh, LARP1B / RFU, RASA1 / Fold change vs veh, RASA1 / RFU, RB1 / Fold change vs veh, RB1 / RFU, PPFIA1 / Fold change vs veh, PPFIA1 / RFU, MAT2A / Fold change vs veh, MAT2A / RFU, CCT5 / Fold change vs veh, CCT5 / RFU, WDR92 / Fold change vs veh, WDR92 / RFU, CUX1 / Fold change vs veh, CUX1 / RFU, TTC7A / Fold change vs veh, TTC7A / RFU, TMEM135 / Fold change vs veh, TMEM135 / RFU, DEPTOR / Fold change vs veh, DEPTOR / RFU, CPM / Fold change vs veh, CPM / RFU, DNAJB6 / Fold change vs veh, DNAJB6 / RFU, CACNA2D3 / Fold change vs veh, CACNA2D3 / RFU, DTX4 / Fold change vs veh, DTX4 / RFU, TFCP2 / Fold change vs veh, TFCP2 / RFU, GMCL1 /// GMCL1P1 / Fold change vs veh, GMCL1 /// GMCL1P1 / RFU, AEBP2 / Fold change vs veh, AEBP2 / RFU, SNHG1 /// SNORD22 /// SNORD25 /// SNORD26 /// SNORD27 /// SNORD28 /// SNORD29 /// SNORD31 / Fold change vs veh, SNHG1 /// SNORD22 /// SNORD25 /// SNORD26 /// SNORD27 /// SNORD28 /// SNORD29 /// SNORD31 / Fold change (Aza/veh), C12orf56 (ProbeSet 11735607_a_at) / Fold change (ACY-1035/veh), C12orf56 (ProbeSet 11735607_a_at) / Fold change (Aza/veh), FGFR1OP (ProbeSet 11751329_s_at) / Fold change (ACY-1035/veh), FGFR1OP (ProbeSet 11751329_s_at) / Fold change (Aza/veh), VPS36 (ProbeSet 11739960_a_at) / Fold change (ACY-1035/veh), VPS36 (ProbeSet 11739960_a_at) / RFU SYPL1 (11715823_x_at) / Fold change /veh SYPL1 (11715823_x_at) / RFU IGFBP7 (11715501_s_at) / Fold change /veh IGFBP7 (11715501_s_at) / RFU REEP3 (11722064_at) / Fold change /veh REEP3 (11722064_at) / RFU IGLL1 (11728026_x_at) / Fold change /veh IGLL1 (11728026_x_at): dose or concentration left out as unconfirmed. The settings on record: MV-4-11 cells, 48 hours.

For the compound `Nc1ccc(-c2cccs2)cc1NC(=O)c1ccc2c(c1)cc(C1CC1)n2CCN1CCOCC1` [ACY-1035], the “RFU ORM1 (11744905_x_at)” value is recorded as 9.21 RFU.
